Laboratory results: PubChem BioAssay AID1963826 (Molecular Pharmacology Branch, DTP, NCI, 2024)

Test system: 926638-142-R-J1-PDC complex spheroid viability
Assay: Anticancer human tumor 926638-142-R-J1-PDC patient-derived endometrial carcinoma cell line growth inhibition [POLQ]
Conditions: for IC50: curve of first compound; for viability, T/C: stronger effect = lower value
Method in brief: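 PDC + HUVEC + MSC complex spheroids; POLQ inhibitors ± partner drugs; top conc. at/near clinical Cmax, else 10 microM (SN-38 1 microM), half-log dilutions; 37 degrees C, 5% CO2.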

[1] = second compound 0.0316 µM, first compound 0.0316 µM
[2] = second compound 0.0316 µM, first compound 0.1 µM
[3] = second compound 0.0316 µM, first compound 0.316 µM
[4] = second compound 0.0316 µM, first compound 1 µM
[5] = second compound 0.0316 µM, first compound 3.16 µM
[6] = second compound 0.0316 µM, first compound 10 µM
[7] = second compound 0.1 µM, first compound 0.0316 µM
[8] = second compound 0.1 µM, first compound 0.1 µM
[9] = second compound 0.1 µM, first compound 0.316 µM
[10] = second compound 0.1 µM, first compound 1 µM
[11] = second compound 0.1 µM, first compound 3.16 µM
[12] = second compound 0.1 µM, first compound 10 µM
[13] = second compound 0.316 µM, first compound 0.0316 µM
[14] = second compound 0.316 µM, first compound 0.1 µM
[15] = second compound 0.316 µM, first compound 0.316 µM
[16] = second compound 0.316 µM, first compound 1 µM
[17] = second compound 0.316 µM, first compound 3.16 µM
[18] = second compound 0.316 µM, first compound 10 µM
[19] = second compound 1 µM, first compound 0.0316 µM
[20] = second compound 1 µM, first compound 0.1 µM
[21] = second compound 1 µM, first compound 0.316 µM
[22] = second compound 1 µM, first compound 1 µM
[23] = second compound 1 µM, first compound 3.16 µM
[24] = second compound 1 µM, first compound 10 µM
[25] = second compound 3.16 µM, first compound 0.0316 µM
[26] = second compound 3.16 µM, first compound 0.1 µM
[27] = second compound 3.16 µM, first compound 0.316 µM
[28] = second compound 3.16 µM, first compound 1 µM
[29] = second compound 3.16 µM, first compound 3.16 µM
[30] = second compound 3.16 µM, first compound 10 µM
[31] = second compound 10 µM, first compound 0.0316 µM
[32] = second compound 10 µM, first compound 0.1 µM
[33] = second compound 10 µM, first compound 0.316 µM
[34] = second compound 10 µM, first compound 1 µM
[35] = second compound 10 µM, first compound 3.16 µM
[36] = second compound 10 µM, first compound 10 µM
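Also: spheroids exposed to drugs for one week before readout.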
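For viability, T/C in this document: percent viability relative to DMSO vehicle control wells set as 100%.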

CCc1cc2c(N3CCc4c(cc(Cn5ccnc5)cc4-c4cn(C)nc4C(F)(F)F)C3=O)ccnc2c(OC)n1 + Nc1ccc(C#CCN(C(=O)Cc2ncc(C(F)(F)F)cc2C(F)(F)F)c2ccc(F)cc2)nn1
IC50 (second compound 0.0316 µM): 1060 nM | IC50 (second compound 0.1 µM): 879 nM | IC50 (second compound 0.316 µM): 713 nM | IC50 (second compound 1 µM): 931 nM | IC50 (second compound 3.16 µM): 578 nM | IC50 (second compound 10 µM): 757 nM | viability, T/C [1]: 88.5% | viability, T/C [2]: 73.4% | viability, T/C [3]: 59.6% | viability, T/C [4]: 54.3% | viability, T/C [5]: 38.7% | viability, T/C [6]: 26.6% | viability, T/C [7]: 81.5% | viability, T/C [8]: 77.6% | viability, T/C [9]: 59.8% | viability, T/C [10]: 49.8% | viability, T/C [11]: 36.8% | viability, T/C [12]: 29.6% | viability, T/C [13]: 88.8% | viability, T/C [14]: 73.4% | viability, T/C [15]: 53.4% | viability, T/C [16]: 48.1% | viability, T/C [17]: 41.2% | viability, T/C [18]: 29.4% | viability, T/C [19]: 83.7% | viability, T/C [20]: 67.3% | viability, T/C [21]: 62.4% | viability, T/C [22]: 45.3% | viability, T/C [23]: 44.8% | viability, T/C [24]: 33.3% | viability, T/C [25]: 68.3% | viability, T/C [26]: 70.5% | viability, T/C [27]: 58% | viability, T/C [28]: 41.7% | viability, T/C [29]: 38.2% | viability, T/C [30]: 31.7% | viability, T/C [31]: 86.4% | viability, T/C [32]: 67.2% | viability, T/C [33]: 59.8% | viability, T/C [34]: 48.5% | viability, T/C [35]: 37.3% | viability, T/C [36]: 32.4%

COc1cc2cc(C(=O)CCC(=O)O)sc2cc1OC + Nc1ccc(C#CCN(C(=O)Cc2ncc(C(F)(F)F)cc2C(F)(F)F)c2ccc(F)cc2)nn1
IC50 (second compound 0.0316 µM): > 10000 nM | IC50 (second compound 0.1 µM): > 10000 nM | IC50 (second compound 0.316 µM): > 10000 nM | IC50 (second compound 1 µM): > 10000 nM | IC50 (second compound 3.16 µM): > 10000 nM | IC50 (second compound 10 µM): > 10000 nM | viability, T/C [1]: 101% | viability, T/C [2]: 99.4% | viability, T/C [3]: 104% | viability, T/C [4]: 98.5% | viability, T/C [5]: 104% | viability, T/C [6]: 70% | viability, T/C [7]: 111% | viability, T/C [8]: 97.8% | viability, T/C [9]: 91.1% | viability, T/C [10]: 96.4% | viability, T/C [11]: 104% | viability, T/C [12]: 103% | viability, T/C [13]: 110% | viability, T/C [14]: 105% | viability, T/C [15]: 107% | viability, T/C [16]: 102% | viability, T/C [17]: 112% | viability, T/C [18]: 99.9% | viability, T/C [19]: 111% | viability, T/C [20]: 108% | viability, T/C [21]: 90.4% | viability, T/C [22]: 101% | viability, T/C [23]: 112% | viability, T/C [24]: 85.1% | viability, T/C [25]: 110% | viability, T/C [26]: 93.9% | viability, T/C [27]: 105% | viability, T/C [28]: 101% | viability, T/C [29]: 104% | viability, T/C [30]: 88.4% | viability, T/C [31]: 89.3% | viability, T/C [32]: 101% | viability, T/C [33]: 83.4% | viability, T/C [34]: 85.2% | viability, T/C [35]: 96.4% | viability, T/C [36]: 87.8%

COc1ccc([C@@H](O)c2cc(-c3ncnc4cc(N5CCOCC5)ccc34)c(F)cc2Cl)nn1 + Nc1ccc(C#CCN(C(=O)Cc2ncc(C(F)(F)F)cc2C(F)(F)F)c2ccc(F)cc2)nn1
IC50 (second compound 0.0316 µM): 631 nM | IC50 (second compound 0.1 µM): 450 nM | IC50 (second compound 0.316 µM): 572 nM | IC50 (second compound 1 µM): 708 nM | IC50 (second compound 3.16 µM): 628 nM | IC50 (second compound 10 µM): 537 nM | viability, T/C [1]: 90.7% | viability, T/C [2]: 82% | viability, T/C [3]: 58.1% | viability, T/C [4]: 47.2% | viability, T/C [5]: 20.1% | viability, T/C [6]: 14.7% | viability, T/C [7]: 101% | viability, T/C [8]: 83.3% | viability, T/C [9]: 56.6% | viability, T/C [10]: 34% | viability, T/C [11]: 19.4% | viability, T/C [12]: 12.7% | viability, T/C [13]: 119% | viability, T/C [14]: 101% | viability, T/C [15]: 67.1% | viability, T/C [16]: 33.9% | viability, T/C [17]: 19.8% | viability, T/C [18]: 15% | viability, T/C [19]: 103% | viability, T/C [20]: 88.9% | viability, T/C [21]: 71.9% | viability, T/C [22]: 41.2% | viability, T/C [23]: 20% | viability, T/C [24]: 13.2% | viability, T/C [25]: 91.6% | viability, T/C [26]: 75.8% | viability, T/C [27]: 67% | viability, T/C [28]: 39.3% | viability, T/C [29]: 22.9% | viability, T/C [30]: 12.7% | viability, T/C [31]: 81.4% | viability, T/C [32]: 76.2% | viability, T/C [33]: 65.6% | viability, T/C [34]: 32% | viability, T/C [35]: 15% | viability, T/C [36]: 10.2%

O=C(Nc1ccc(O)c(NS(=O)(=O)c2ccc(F)cc2)c1)c1ccc(-c2ccccc2)cc1 + Nc1ccc(C#CCN(C(=O)Cc2ncc(C(F)(F)F)cc2C(F)(F)F)c2ccc(F)cc2)nn1
IC50 (second compound 0.0316 µM): > 10000 nM | IC50 (second compound 0.1 µM): > 10000 nM | IC50 (second compound 0.316 µM): > 10000 nM | IC50 (second compound 1 µM): > 10000 nM | IC50 (second compound 3.16 µM): > 10000 nM | IC50 (second compound 10 µM): > 10000 nM | viability, T/C [1]: 106% | viability, T/C [2]: 101% | viability, T/C [3]: 80.8% | viability, T/C [4]: 110% | viability, T/C [5]: 95.7% | viability, T/C [6]: 82.8% | viability, T/C [7]: 105% | viability, T/C [8]: 103% | viability, T/C [9]: 107% | viability, T/C [10]: 108% | viability, T/C [11]: 96.4% | viability, T/C [12]: 81.3% | viability, T/C [13]: 114% | viability, T/C [14]: 102% | viability, T/C [15]: 99.5% | viability, T/C [16]: 116% | viability, T/C [17]: 109% | viability, T/C [18]: 81.1% | viability, T/C [19]: 98% | viability, T/C [20]: 106% | viability, T/C [21]: 103% | viability, T/C [22]: 105% | viability, T/C [23]: 105% | viability, T/C [24]: 71.9% | viability, T/C [25]: 100% | viability, T/C [26]: 82.4% | viability, T/C [27]: 96.1% | viability, T/C [28]: 100% | viability, T/C [29]: 106% | viability, T/C [30]: 67.6% | viability, T/C [31]: 92.2% | viability, T/C [32]: 92.8% | viability, T/C [33]: 89.5% | viability, T/C [34]: 104% | viability, T/C [35]: 104% | viability, T/C [36]: 72.5%
